The test system of experiment [1] is GM1 production in Jurkat cells. The experiment is described as follows: cells. Format: cell-based. The conditions noted are these: Homo sapiens, Jurkat, 72 h.
The target of experiment [2] is T1, glucosylceramide synthase (GCS) (Homo sapiens, UniProt Q16739).
T1 construct: The obtained supernatant was used; host or cells: A549 cells (lysate supernatant after sonication)
T1 sequence (Q16739 1-394): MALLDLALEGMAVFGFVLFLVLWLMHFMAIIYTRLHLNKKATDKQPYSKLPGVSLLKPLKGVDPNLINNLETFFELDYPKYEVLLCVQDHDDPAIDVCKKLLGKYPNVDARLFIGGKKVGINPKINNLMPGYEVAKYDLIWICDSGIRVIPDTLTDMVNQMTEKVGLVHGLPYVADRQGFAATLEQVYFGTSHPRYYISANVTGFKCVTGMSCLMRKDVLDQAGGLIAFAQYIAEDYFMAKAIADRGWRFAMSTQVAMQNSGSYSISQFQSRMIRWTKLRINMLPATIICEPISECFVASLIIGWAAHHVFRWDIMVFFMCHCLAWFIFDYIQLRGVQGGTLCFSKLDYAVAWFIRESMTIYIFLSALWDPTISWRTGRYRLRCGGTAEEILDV
The experiment is described as follows: GCS enzyme inhibition assay (A549 cell lysate, NBD C6-ceramide, HPLC fluorescence). The format is biochemical. The conditions noted are these: inhibitory activity against GCS, 37° C., 90 minutes. The procedure, abridged:
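A549 cell lysate (50 mM HEPES pH 7.3) served as GCS source; reactions ran 90 min at 37° C, were stopped with chloroform/methanol and lipids extracted. Activity taken as GlcCer/(Cer+GlcCer) peak area, normalised between DMSO and ibiglustat controls.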

As a reminder, the IC50 is the concentration at which inhibition is half-maximal. The low end stands for higher potency, the high end for lower potency. For the compound `CC1(C)COc2cc(-c3ccc(C(F)(F)F)cc3F)ccc2C1NC(=O)O[C@@H]1CN2CCC1CC2` (stereo partly drawn) [Example 262, (S)-quinuclidin-3-yl (7-(2-fluoro-4-(trifluoromethyl)phenyl)-3,3-dimethylchroman-4-yl)carbamate], the IC50 in experiment [1] was 3.7 nM; in experiment [2] it was 0.52 nM.
In the same order, the values of `Cc1cc(-c2ccc3c(c2)OCC(C)(C)C3NC(=O)O[C@@H]2CN3CCC2CC3)cc(C)c1OC(C)C` (stereo partly drawn) [Example 263, (S)-quinuclidin-3-yl (7-(4-isopropoxy-3,5-dimethylphenyl)-3,3-dimethylchroman-4-yl)carbamate] are 4 nM and 1.44 nM.
The matching figures for `CC1(C)COc2cc(-c3ccccc3)ccc2C1NC(=O)O[C@@H]1CN2CCC1CC2` (stereo partly drawn) [Example 264, (S)-quinuclidin-3-yl (3,3-dimethyl-7-phenylchroman-4-yl)carbamate]: 0.7 nM and 0.35 nM.
For the compound `CC1(C)COc2cc(-c3cccnc3)ccc2C1NC(=O)O[C@@H]1CN2CCC1CC2` (stereo partly drawn) [Example 265, (S)-quinuclidin-3-yl (3,3-dimethyl-7-(pyridin-3-yl)chroman-4-yl)carbamate], the IC50 in experiment [1] came to 38.7 nM; in experiment [2], 2.03 nM.
Take `CC1(C)COc2cc(-c3ccccn3)ccc2C1NC(=O)O[C@@H]1CN2CCC1CC2` (stereo partly drawn) [Example 266, (S)-quinuclidin-3-yl (3,3-dimethyl-7-(pyridin-2-yl)chroman-4-yl)carbamate]: the half-inhibitory concentration (IC50) was 26.9 nM in experiment [1] and 4.07 nM in experiment [2].
In the same order, the values of `CC1(C)COc2cc(Cc3ccccc3)ccc2C1NC(=O)O[C@@H]1CN2CCC1CC2` (stereo partly drawn) [Example 267, (S)-quinuclidin-3-yl (7-benzyl-3,3-dimethylchroman-4-yl)carbamate] are 9.1 nM and 1.48 nM.
As for `Cc1cccc(-c2ccc3c(c2)OCC(C)(C)C3NC(=O)O[C@@H]2CN3CCC2CC3)c1` (stereo partly drawn) [Example 268, (S)-quinuclidin-3-yl (3,3-dimethyl-7-(m-tolyl)chroman-4-yl)carbamate], the 50% inhibitory concentration (IC50) in experiment [1] turned out to be 1.4 nM; in experiment [2], 0.62 nM.
On to `Cc1ccc(-c2ccc3c(c2)OCC(C)(C)C3NC(=O)O[C@@H]2CN3CCC2CC3)cc1` (stereo partly drawn) [Example 269, (S)-quinuclidin-3-yl (3,3-dimethyl-7-(p-tolyl)chroman-4-yl)carbamate], for which the figures for the IC50 in experiment [1] and in experiment [2] were 1.9 nM and 0.66 nM, respectively.
The matching figures for `Cc1ccccc1-c1ccc2c(c1)OCC(C)(C)C2NC(=O)O[C@@H]1CN2CCC1CC2` (stereo partly drawn) [Example 270, (S)-quinuclidin-3-yl (3,3-dimethyl-7-(o-tolyl)chroman-4-yl)carbamate]: 1 nM and 0.78 nM.
For the compound `CC1(C)COc2cc(/C=C/c3ccsc3)ccc2C1NC(=O)O[C@@H]1CN2CCC1CC2` (stereo partly drawn) [Example 271, (S)-quinuclidin-3-yl (3,3-dimethyl-7-((E)-2-(thiophen-3-yl)vinyl)chroman-4-yl)carbamate], the IC50 in experiment [1] worked out at 9 nM; in experiment [2] it was 1.26 nM.
The matching figures for `C=Cc1ccc(-c2ccc3c(c2)OCC(C)(C)C3NC(=O)O[C@@H]2CN3CCC2CC3)cc1` (stereo partly drawn) [Example 272, (S)-quinuclidin-3-yl (3,3-dimethyl-7-(4-vinylphenyl)chroman-4-yl)carbamate]: 4.4 nM and 0.89 nM.
With `CCc1ccc(-c2ccc3c(c2)OCC(C)(C)C3NC(=O)O[C@@H]2CN3CCC2CC3)cc1` (stereo partly drawn) [Example 273, (S)-quinuclidin-3-yl (7-(4-ethylphenyl)-3,3-dimethylchroman-4-yl)carbamate], the IC50 came out at 2.9 nM in experiment [1] and 0.46 nM in experiment [2].
Turning to `C=Cc1ccccc1-c1ccc2c(c1)OCC(C)(C)C2NC(=O)O[C@@H]1CN2CCC1CC2` (stereo partly drawn) [Example 274, (S)-quinuclidin-3-yl (3,3-dimethyl-7-(2-vinylphenyl)chroman-4-yl)carbamate], the half-maximal inhibitory concentration (IC50) turned out to be 1.7 nM in experiment [1] and 0.58 nM in experiment [2].
The matching figures for `CCOc1ccc(-c2ccc3c(c2)OCC(C)(C)C3NC(=O)O[C@@H]2CN3CCC2CC3)c(C)c1` (stereo partly drawn) [Example 275, (S)-quinuclidin-3-yl (7-(4-ethoxy-2-methylphenyl)-3,3-dimethylchroman-4-yl)carbamate]: 2.6 nM and 0.84 nM.
In the case of `CC1(C)COc2cc(-c3ccc(OCc4ccccc4)cc3)ccc2C1NC(=O)O[C@@H]1CN2CCC1CC2` (stereo partly drawn) [Example 276, (S)-quinuclidin-3-yl (7-(4-(benzyloxy)phenyl)-3,3-dimethylchroman-4-yl)carbamate], the IC50 was determined as 1.3 nM in experiment [1] and 0.54 nM in experiment [2].
Consider `CC1(C)COc2cc(-c3cccc(OCc4ccccc4)c3)ccc2C1NC(=O)O[C@@H]1CN2CCC1CC2` (stereo partly drawn) [Example 277, (S)-quinuclidin-3-yl (7-(3-(benzyloxy)phenyl)-3,3-dimethylchroman-4-yl)carbamate], for which the 50% inhibitory concentration (IC50) came to 0.9 nM in experiment [1] and 0.65 nM in experiment [2].
In the same order, the values of `CC1(C)COc2cc(-c3ccc(F)nc3F)ccc2C1NC(=O)O[C@@H]1CN2CCC1CC2` (stereo partly drawn) [Example 278, (S)-quinuclidin-3-yl (7-(2,6-difluoropyridin-3-yl)-3,3-dimethylchroman-4-yl)carbamate] are 12.4 nM and 2.19 nM.
With `C=CCc1ccccc1-c1ccc2c(c1)OCC(C)(C)C2NC(=O)O[C@@H]1CN2CCC1CC2` (stereo partly drawn) [Example 279, (S)-quinuclidin-3-yl (7-(2-allylphenyl)-3,3-dimethylchroman-4-yl)carbamate], the figures for the IC50 in experiment [1] and in experiment [2] were 6.2 nM and 0.73 nM, respectively.
In the same order, the values of `CC1(C)COc2cc(-c3ccc(CC#N)cc3)ccc2C1NC(=O)O[C@@H]1CN2CCC1CC2` (stereo partly drawn) [Example 280, (S)-quinuclidin-3-yl (7-(4-(cyanomethyl)phenyl)-3,3-dimethylchroman-4-yl)carbamate] are 9.3 nM and 0.62 nM.
For `CC1(C)COc2cc(-c3cccc(CC#N)c3)ccc2C1NC(=O)O[C@@H]1CN2CCC1CC2` (stereo partly drawn) [Example 281, (S)-quinuclidin-3-yl (7-(3-(cyanomethyl)phenyl)-3,3-dimethylchroman-4-yl)carbamate], the IC50 turned out to be 6.9 nM in experiment [1] and 0.65 nM in experiment [2].
The matching figures for `CC1(C)COc2cc(/C=C/c3ccc(-c4ccccc4)cc3)ccc2C1NC(=O)O[C@@H]1CN2CCC1CC2` (stereo partly drawn) [Example 282, (S)-quinuclidin-3-yl (7-((E)-2-([1,1′-diphenyl]-4-yl)vinyl)-3,3-dimethylchroman-4-yl)carbamate]: 2 nM and 1.64 nM.
In the same order, the values of `CC1(C)COc2cc(-c3cnc(C4CC4)nc3)ccc2C1NC(=O)O[C@@H]1CN2CCC1CC2` (stereo partly drawn) [Example 283, (S)-quinuclidin-3-yl (7-(2-cyclopropylpyrimidin-5-yl)-3,3-dimethylchroman-4-yl)carbamate] are 25.6 nM and 2.2 nM.
Regarding `CC1(C)COc2cc(/C=C/c3ccc(C(F)(F)F)cc3)ccc2C1NC(=O)O[C@@H]1CN2CCC1CC2` (stereo partly drawn) [Example 284, (S)-quinuclidin-3-yl (3,3-dimethyl-7-((E)-4-(trifluoromethyl)styryl)chroman-4-yl)carbamate], the concentration for half-maximal inhibition (IC50) in experiment [1] worked out at 0.5 nM; in experiment [2] it was 0.91 nM.
The matching figures for `Cc1cc(C)c(Cl)c(-c2ccc3c(c2)OCC(C)(C)C3NC(=O)O[C@@H]2CN3CCC2CC3)c1` (stereo partly drawn) [Example 285, (S)-quinuclidin-3-yl (7-(2-chloro-3,5-dimethylphenyl)-3,3-dimethylchroman-4-yl)carbamate]: 9.7 nM and 1.96 nM.
Regarding `CC1(C)COc2cc(/C=C/c3ccc(F)cc3F)ccc2C1NC(=O)O[C@@H]1CN2CCC1CC2` (stereo partly drawn) [Example 286, (S)-quinuclidin-3-yl (7-((E)-2,4-difluorostyryl)-3,3-dimethylchroman-4-yl)carbamate], the IC50 in experiment [1] was 3.3 nM; in experiment [2] it was 0.93 nM.
The matching figures for `CCc1ccc(/C=C/c2ccc3c(c2)OCC(C)(C)C3NC(=O)O[C@@H]2CN3CCC2CC3)cc1` (stereo partly drawn) [Example 287, (S)-quinuclidin-3-yl (7-((E)-4-ethylstyryl)-3,3-dimethylchroman-4-yl)carbamate]: 1 nM and 0.79 nM.
As for `CCOc1ccc2cc(-c3ccc4c(c3)OCC(C)(C)C4NC(=O)O[C@@H]3CN4CCC3CC4)ccc2c1` (stereo partly drawn) [Example 288, (S)-quinuclidin-3-yl (7-(6-ethoxynaphthalen-2-yl)-3,3-dimethylchroman-4-yl)carbamate], the IC50 in experiment [1] came out at 0.7 nM; in experiment [2], 1.11 nM.
With `CC1(C)COc2cc(/C=C/c3cccc(F)c3)ccc2C1NC(=O)O[C@@H]1CN2CCC1CC2` (stereo partly drawn) [Example 289, (S)-quinuclidin-3-yl (7-((E)-3-fluorostyryl)-3,3-dimethylchroman-4-yl)carbamate], the half-maximal inhibitory concentration (IC50) in experiment [1] is 1.4 nM; in experiment [2], 0.61 nM.
As for `CC1(C)COc2cc(-c3cccc4c3oc3ccccc34)ccc2C1NC(=O)O[C@@H]1CN2CCC1CC2` (stereo partly drawn) [Example 290, (S)-quinuclidin-3-yl (7-(dibenzo[b,d]furan-4-yl)-3,3-dimethylchroman-4-yl)carbamate], the values for the concentration for half-maximal inhibition (IC50) in experiment [1] and in experiment [2] were 0.9 nM and 1.54 nM, respectively.
For `CC1(C)COc2cc(-c3ccc(C#N)c(F)c3)ccc2C1NC(=O)O[C@@H]1CN2CCC1CC2` (stereo partly drawn) [Example 291, (S)-quinuclidin-3-yl (7-(4-cyano-3-fluorophenyl)-3,3-dimethylchroman-4-yl)carbamate], the values for the 50% inhibitory concentration (IC50) in experiment [1] and in experiment [2] were 8.9 nM and 1.03 nM, respectively.

Values taken from patent publication US12673944B2, “Compounds having inhibitory activity against glucosylceramide synthase or pharmaceutically acceptable salt thereof, processes for preparing the same, and pharmaceutical compositions comprising the same” (YUHAN CORPORATION, priority 2019, dated 2026).
